# Source: publication PMC7391726, “Fatty acid mimetic PBI-4547 restores metabolic homeostasis via GPR84 in mice with non-alcoholic fatty liver disease” (Scientific Reports, 2020)
# pEC50: −log10 of the molar value. Read-outs that look alike come from different tables or passages of the source.
# Columns and labels:
# ob/ob mice = assay: ob/ob leptin-deficient genetic mouse model of metabolic syndrome; assay type: in vivo
# Source text: We next sought to confirm our above findings obtained from the diet-induced model of obesity by using the ob/ob leptin-deficient genetic mouse model of metabolic syndrome. […] Additionally, the mRNA expression profiles of glucose- and FA-related genes in liver (Fig. S4D,E) and WAT (Fig. S5) also differed between pioglitazone- and PBI-4547-treated mice.
# GPR40 = target: T1, GPR40 (Homo sapiens, UniProt O14842); design: method as in PMID 29454750; conditions: previously reported, cited from earlier work
# T1 construct: expressed in transfected cells; host or cells: HEK293
# T1 sequence (O14842 whole entry, species assumed): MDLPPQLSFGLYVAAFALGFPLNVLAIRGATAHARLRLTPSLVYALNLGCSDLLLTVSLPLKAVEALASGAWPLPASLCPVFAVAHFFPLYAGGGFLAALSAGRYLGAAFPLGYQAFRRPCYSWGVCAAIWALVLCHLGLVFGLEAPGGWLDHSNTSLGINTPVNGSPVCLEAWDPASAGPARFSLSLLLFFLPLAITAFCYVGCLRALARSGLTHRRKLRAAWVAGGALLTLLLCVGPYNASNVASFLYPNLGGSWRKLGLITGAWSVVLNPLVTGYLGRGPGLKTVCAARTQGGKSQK
# GPR84 = target: T2, GPR84 (Homo sapiens, UniProt Q9NQS5); assay: BRET Gαi2 activation biosensor in HEK293 cells transfected with GPR84; assay type: cell-based; conditions: compound alone vs vehicle
# T2 construct: expressed in transfected cells; host or cells: HEK293
# T2 sequence (Q9NQS5 whole entry, species assumed): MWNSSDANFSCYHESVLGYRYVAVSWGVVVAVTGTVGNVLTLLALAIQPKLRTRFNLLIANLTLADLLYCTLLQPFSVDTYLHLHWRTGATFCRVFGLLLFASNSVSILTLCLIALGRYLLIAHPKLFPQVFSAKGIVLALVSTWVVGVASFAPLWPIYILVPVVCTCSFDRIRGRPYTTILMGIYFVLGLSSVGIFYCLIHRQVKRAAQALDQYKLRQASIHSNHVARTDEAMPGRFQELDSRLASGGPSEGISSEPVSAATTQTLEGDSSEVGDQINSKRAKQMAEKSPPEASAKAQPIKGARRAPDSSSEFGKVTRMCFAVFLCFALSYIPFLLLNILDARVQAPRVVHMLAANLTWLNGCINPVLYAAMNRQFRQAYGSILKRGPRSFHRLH
# Source text: PBI-4547 (2-[3,5-dipentylphenyl]acetate sodium salt) is a medium-chain FA (MCFA) mimetic (Fig. 1A). Accordingly, we examined the signaling properties of PBI-4547 on receptors known to be activated by MCFAs. […] This biosensor consisted of an Rluc8-tagged Gαi2 subunit, a GFP10-tagged Gγ2 subunit, and an untagged Gβ1. Agonist stimulation and receptor activation triggers a physical separation between the Gα-Rluc8 donor and the GFP10-Gγ2 acceptor, resulting in a decrease in BRET signal, whose amplitude is correlated to ligand efficacy. […] (A) Chemical structure of PBI-4547. (B) Gi pathway activation was monitored in HEK293 cells transfected with GPR84 and the Gαi2 activation biosensor. […] (C) β-arrestin 2 recruitment to activated GPR120 receptor was monitored in HEK293 cells transfected with RLuc8-β-arrestin 2 and GPR120-GFP10. (D) Cells transfected with GPR40 and Gαq or Gαi2 activation biosensor were exposed to increasing concentrations of PBI-4547 or to 500 µM of sodium decanoate, and BRET variation compared with vehicle was measured. Cells were exposed to increasing concentrations of PBI-4547 or to 100 µM of GW9508, and BRET variation compared with vehicle was measured. (E) LanthaScreen TR-FRET competitive binding assay of PBI-4547 and PPAR control agonists to the LBD of PPARα, PPARδ and PPARγ. (F) Cell-based GAL4 transactivation assay in HEK293 cells transfected with the LBD of PPARα, PPARδ or PPARγ, and treated with increasing concentrations of PBI-4547 or PPAR control agonists. Data in (B–D) are expressed as means ± SEM of 4–5 experiments; data in (E,F) are from a representative experiment from a total of 3 to 4 independent experiments. BRET measurements in transiently transfected HEK293 cells were performed as previously described. Ligands were incubated with cells at room temperature for 10 min (G protein biosensors) or 25 min (β-arrestin/GPR120) before collecting BRET[2] readings between Rluc8 and GFP10.
Compound,bodyweight (ob/ob mice),"pEC50 (GPR40; Gαi2, read-out: EC50, GPR40 Gαi2)","pEC50 (GPR40; Gαq, read-out: EC50, GPR40 Gαq)",GPR84/Gαi2-mediated BRET signal modulation (agonist mode) (GPR84)
"CCc1ccc(CCOc2ccc(CC3SC(=O)NC3=O)cc2)nc1 (stereo not shown) [pioglitazone, reference compound]",increased trend towards weight gain,,,
CCCCCCCCCC(=O)[O-].[Na+] [sodium decanoate],,4.80,3.99,induced a BRET signal decrease
